Laboratory results: patent US8609836B2, “4-aryl-2-anilino-pyrimidines” (Janssen Pharmaceutica NV, priority 2008, dated 2013)

What was measured:
PLK1 T210D (h) = PLK1 T210D (h) (Homo sapiens, UniProt P53350, T210D); assay: PLK1 human kinase inhibition, SPA; assay type: biochemical; settings: read-out: PLK1 pIC50 (converted)
In short: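 Kinase incubated 40 min at room temperature with 0.1 μM ATP (2 nM [γ-33P]ATP tracer), 2 μM biotinylated peptide, pH 8.0 Hepes buffer with 2 mM MnCl2 and 1 mM DTT; enzyme at 0.125 ng/ml. Stopped with EDTA; 33P-peptide bound to streptavidin scintillant beads and imaged.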

HCT-116 = assay: Cellular proliferation assay (Alamar blue), HCT-116; assay type: cell-based; settings: Homo sapiens, 10% FCS, 72 hours with compound, Alamar blue 4 h
In short: (§1)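 Alamar blue fluorescence (544/590 nm) measured viable cells after 72 h compound exposure; dye incubation 4 h (HCT-116), 6 h (U87-MG) or 24 h (A2780, MDA-MB-231). Cells pre-seeded 24 h, grown in 10% FCS, 37° C, 5% CO2; effect expressed relative to control cells.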

H1299 = assay: Cellular proliferation assay (Alamar blue), H1299; assay type: cell-based; settings: Homo sapiens, NCI-H1299; 10% FCS; 72 hours with compound; Alamar blue 4 h
In short: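 This proliferation assay on NCI-H1299 cells used an initial 24-hour compound-free incubation after seeding, followed by 72 hours of compound treatment with 10% FCS serum at 37° C. and 5% (v/v) CO2. Viable cells were quantified by a 4 h Alamar blue incubation and fluorescent plate reading at 544 nm/590 nm, and effects were expressed relative to control cells.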

GSK3β (h) = GSK3β (h) (Homo sapiens, UniProt P49841); assay: GSK-3β human kinase inhibition, SPA; assay type: biochemical; settings: read-out: GSK3b pIC50 (converted)
Sequence of GSK3β (h) (P49841 whole entry): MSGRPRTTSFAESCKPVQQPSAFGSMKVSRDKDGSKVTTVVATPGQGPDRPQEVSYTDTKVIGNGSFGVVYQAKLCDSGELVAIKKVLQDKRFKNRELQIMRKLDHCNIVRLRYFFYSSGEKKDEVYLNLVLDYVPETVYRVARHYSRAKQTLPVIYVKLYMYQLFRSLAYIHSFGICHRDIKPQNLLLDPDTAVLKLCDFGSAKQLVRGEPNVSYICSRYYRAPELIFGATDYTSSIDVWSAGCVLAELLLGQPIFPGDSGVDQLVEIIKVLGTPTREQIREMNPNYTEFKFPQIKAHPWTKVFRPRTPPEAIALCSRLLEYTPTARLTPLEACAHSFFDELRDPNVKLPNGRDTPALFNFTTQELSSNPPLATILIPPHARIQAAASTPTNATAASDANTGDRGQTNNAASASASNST
In short: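 Radiometric: 33P-labelled peptide captured on streptavidin SPA beads after EDTA stop and imaged on Leadseeker. Reaction ran 1 h at RT, 1 μM cold ATP with 2 nM [γ-33P]ATP, 1 μM biotin-peptide substrate, human GSK3β 1 μg/ml, pH 7.4 Tris buffer.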

CDK4/CyclinD1 (h) = CDK4/CyclinD1 (h) (Homo sapiens, UniProt P11802); assay: CDK4/CyclinD1 human kinase inhibition, SPA with GST-pRb substrate; assay type: biochemical; settings: read-out: CDK4 pIC50 (converted)
Sequence of CDK4/CyclinD1 (h) (P11802 whole entry): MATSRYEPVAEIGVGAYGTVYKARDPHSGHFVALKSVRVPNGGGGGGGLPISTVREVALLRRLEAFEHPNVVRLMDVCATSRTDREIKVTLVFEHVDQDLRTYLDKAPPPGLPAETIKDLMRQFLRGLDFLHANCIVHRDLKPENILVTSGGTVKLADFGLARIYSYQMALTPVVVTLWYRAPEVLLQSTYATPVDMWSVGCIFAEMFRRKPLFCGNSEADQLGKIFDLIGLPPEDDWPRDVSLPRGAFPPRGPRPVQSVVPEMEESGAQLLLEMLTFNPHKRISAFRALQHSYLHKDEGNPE
Sequence of CDK4/CyclinD1 (h) (P24385 whole entry partner): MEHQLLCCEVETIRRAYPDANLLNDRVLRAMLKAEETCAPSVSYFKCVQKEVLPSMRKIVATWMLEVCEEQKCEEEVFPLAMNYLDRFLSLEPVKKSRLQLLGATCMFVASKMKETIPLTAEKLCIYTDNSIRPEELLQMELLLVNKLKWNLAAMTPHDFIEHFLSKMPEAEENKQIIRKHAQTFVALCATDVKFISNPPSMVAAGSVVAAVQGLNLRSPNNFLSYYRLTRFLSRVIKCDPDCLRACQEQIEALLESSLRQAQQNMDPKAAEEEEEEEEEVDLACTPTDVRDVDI
In short: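 Scintillation proximity format: after EDTA/Triton stop containing glutathione SPA beads, 33P incorporation was counted. The reaction ran 60 min at room temperature in Hepes pH 7.5 with NaF, MgCl2, DTT, using 2.5 μg/ml human CDK4/CyclinD1, 40 μg/ml GST-pRb substrate and 2 nM [γ-33P]ATP.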

U87-MG = assay: Cellular proliferation assay (Alamar blue), U87-MG; assay type: cell-based; settings: Homo sapiens, U-87 MG; 10% FCS; 72 hours with compound; Alamar blue 6 h; read-out: U87-MG (cellular proliferation assay, Table 4) (converted)
In short: as §1

PLK3 (h) = PLK3 (h) (Homo sapiens, UniProt Q9H4B4); assay: PLK3 human kinase inhibition, SPA; assay type: biochemical; settings: read-out: PLK3 pIC50 (converted)
Sequence of PLK3 (h) (Q9H4B4 whole entry): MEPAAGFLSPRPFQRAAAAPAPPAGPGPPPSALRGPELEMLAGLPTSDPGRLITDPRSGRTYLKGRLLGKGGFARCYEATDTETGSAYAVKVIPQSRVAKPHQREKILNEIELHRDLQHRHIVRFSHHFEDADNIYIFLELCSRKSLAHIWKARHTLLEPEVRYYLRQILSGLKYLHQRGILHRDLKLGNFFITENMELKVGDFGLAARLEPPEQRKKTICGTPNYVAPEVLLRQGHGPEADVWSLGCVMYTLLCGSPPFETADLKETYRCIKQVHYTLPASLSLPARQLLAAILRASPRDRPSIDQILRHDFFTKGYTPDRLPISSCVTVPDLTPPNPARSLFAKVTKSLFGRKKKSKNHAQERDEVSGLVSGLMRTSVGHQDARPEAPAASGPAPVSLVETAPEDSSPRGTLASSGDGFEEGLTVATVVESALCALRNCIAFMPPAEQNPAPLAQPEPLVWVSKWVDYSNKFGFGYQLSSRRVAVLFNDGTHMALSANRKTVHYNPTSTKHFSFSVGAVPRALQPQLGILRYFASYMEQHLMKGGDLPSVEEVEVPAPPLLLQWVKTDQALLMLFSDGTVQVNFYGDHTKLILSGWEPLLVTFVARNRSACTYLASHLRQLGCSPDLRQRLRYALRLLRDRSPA
In short: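 Radiometric scintillation proximity format at pH 8.0 (Hepes, MnCl2, DTT). The 2 μM biotin-peptide substrate is phosphorylated by PLK3 (h) (30 μg/ml) using 0.1 μM ATP traced with 33P, for 20 min at room temperature. EDTA stop; phosphopeptide captured on streptavidin beads and imaged.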

A2780 = assay: Cellular proliferation assay (Alamar blue), A2780; assay type: cell-based; settings: Homo sapiens, 10% FCS, 72 hours with compound, Alamar blue 24 h, read-out: A2780 (cellular proliferation assay, Table 4) (converted)
In short: as §1

PLK2 (h) = PLK2 (h) (Homo sapiens, UniProt Q9NYY3); assay: PLK2 human kinase inhibition, SPA; assay type: biochemical; settings: read-out: PLK2 pIC50 (converted)
Sequence of PLK2 (h) (Q9NYY3 whole entry): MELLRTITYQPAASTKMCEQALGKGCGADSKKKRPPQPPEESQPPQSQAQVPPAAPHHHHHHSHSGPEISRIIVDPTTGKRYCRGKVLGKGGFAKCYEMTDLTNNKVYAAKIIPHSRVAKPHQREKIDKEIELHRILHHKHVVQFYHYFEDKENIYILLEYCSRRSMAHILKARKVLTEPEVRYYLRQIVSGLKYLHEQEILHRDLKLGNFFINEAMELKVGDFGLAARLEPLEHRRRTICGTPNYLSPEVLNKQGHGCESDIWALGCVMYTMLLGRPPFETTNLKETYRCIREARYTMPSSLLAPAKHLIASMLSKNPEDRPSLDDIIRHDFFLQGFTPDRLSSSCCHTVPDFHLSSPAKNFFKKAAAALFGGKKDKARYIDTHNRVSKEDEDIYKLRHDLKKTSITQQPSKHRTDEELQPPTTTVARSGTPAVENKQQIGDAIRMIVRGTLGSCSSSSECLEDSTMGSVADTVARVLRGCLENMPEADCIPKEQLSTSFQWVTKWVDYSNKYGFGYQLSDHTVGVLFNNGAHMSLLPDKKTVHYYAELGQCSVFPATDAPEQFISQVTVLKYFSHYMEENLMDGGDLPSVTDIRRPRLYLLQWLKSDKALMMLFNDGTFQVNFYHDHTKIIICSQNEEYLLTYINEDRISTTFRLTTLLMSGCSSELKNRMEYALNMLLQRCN
In short: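 33P incorporation into a biotinylated peptide (2 μM) was captured on streptavidin PVT beads and imaged on Leadseeker. Enzyme at 30 μg/ml, ATP 0.1 μM with 2 nM [γ-33P]ATP, Hepes pH 8.0 with MnCl2 and DTT. Incubation was 20 min at room temperature.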

Sequence of PLK1 T210D (h) (P53350 whole entry T210D): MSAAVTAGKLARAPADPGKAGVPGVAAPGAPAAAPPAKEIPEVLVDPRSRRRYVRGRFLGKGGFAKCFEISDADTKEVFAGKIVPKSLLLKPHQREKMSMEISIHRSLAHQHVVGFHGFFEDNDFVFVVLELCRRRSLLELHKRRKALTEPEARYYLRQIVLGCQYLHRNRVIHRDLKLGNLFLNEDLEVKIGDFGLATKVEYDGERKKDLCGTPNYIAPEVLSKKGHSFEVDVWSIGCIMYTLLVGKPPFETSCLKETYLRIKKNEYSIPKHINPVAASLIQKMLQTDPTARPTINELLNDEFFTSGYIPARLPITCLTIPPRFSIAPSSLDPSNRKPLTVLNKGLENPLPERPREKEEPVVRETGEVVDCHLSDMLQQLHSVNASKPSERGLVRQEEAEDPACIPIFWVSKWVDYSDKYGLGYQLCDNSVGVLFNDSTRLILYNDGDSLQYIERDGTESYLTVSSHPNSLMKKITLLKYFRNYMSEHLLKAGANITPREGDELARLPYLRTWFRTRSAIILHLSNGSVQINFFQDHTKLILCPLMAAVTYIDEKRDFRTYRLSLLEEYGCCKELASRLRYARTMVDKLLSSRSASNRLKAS

With O=C1NCc2cccc(c2)-c2ccnc(n2)Nc2cc(CN3CCOCC3)cc(c2)CN2CCC[C@@H]12 [Compound 22] the IC50 (PLK1 T210D (h)) was greater than 10000 nM, the IC50 (HCT-116) was 174 nM and the IC50 (H1299) was 2750 nM. It also gave an IC50 (GSK3β (h)) of 30.9 nM, an IC50 (CDK4/CyclinD1 (h)) of 2750 nM and an IC50 (U87-MG) of 234 nM. It also gave an IC50 (PLK3 (h)) greater than 10000 nM, an IC50 (A2780) of 437 nM and an IC50 (PLK2 (h)) greater than 10000 nM.

Work on CN(C)C(=O)c1ccc2cc1CN1CCC[C@H]1C(=O)NCc1cccc(c1)-c1ccnc(n1)N2 [Compound 24] yielded an IC50 (PLK1 T210D (h)) greater than 10000 nM, an IC50 (HCT-116) of 3800 nM and an IC50 (H1299) greater than 10000 nM. The IC50 (GSK3β (h)) was 87.1 nM, the IC50 (CDK4/CyclinD1 (h)) was 4270 nM and the IC50 (U87-MG) was 4270 nM. The IC50 (PLK3 (h)) was greater than 10000 nM, the IC50 (A2780) was 5890 nM and the IC50 (PLK2 (h)) was greater than 10000 nM.

With O=C1NCc2cccc(c2)-c2ccnc(n2)Nc2cc(CNC3CCOCC3)cc(c2)CN2CCC[C@@H]12 [Compound 29] the IC50 (PLK1 T210D (h)) was greater than 10000 nM, the IC50 (HCT-116) was 646 nM and the IC50 (H1299) was 3800 nM. It also gave an IC50 (GSK3β (h)) of 112 nM, an IC50 (CDK4/CyclinD1 (h)) of 1230 nM and an IC50 (U87-MG) of 457 nM. It also gave an IC50 (PLK3 (h)) greater than 10000 nM, an IC50 (A2780) of 708 nM and an IC50 (PLK2 (h)) greater than 10000 nM.

Compound CN(C)Cc1cc2cc(c1)Nc1nccc(n1)-c1cccc(c1)CNC(=O)[C@@H]1CCCN1C2 [Compound 30] has an IC50 (PLK1 T210D (h)) greater than 10000 nM, an IC50 (HCT-116) of 107 nM and an IC50 (H1299) of 191 nM. The IC50 (GSK3β (h)) was 24 nM, the IC50 (CDK4/CyclinD1 (h)) was 891 nM and the IC50 (U87-MG) was 145 nM. The IC50 (PLK3 (h)) was greater than 10000 nM, the IC50 (A2780) was 174 nM and the IC50 (PLK2 (h)) was greater than 10000 nM.

CN(C)CCNCc1cc2cc(c1)Nc1nccc(n1)-c1cccc(c1)CNC(=O)[C@@H]1CCCN1C2 [Compound 31] was tested, and the IC50 (PLK1 T210D (h)) was greater than 10000 nM, the IC50 (HCT-116) was 1020 nM and the IC50 (H1299) was 1780 nM. For the same compound, the IC50 (GSK3β (h)) was 110 nM, the IC50 (CDK4/CyclinD1 (h)) was 1000 nM and the IC50 (U87-MG) was 2240 nM. For the same compound, the IC50 (PLK3 (h)) was greater than 10000 nM, the IC50 (A2780) was 5010 nM and the IC50 (PLK2 (h)) was greater than 10000 nM.

With COCCNCc1cc2cc(c1)Nc1nccc(n1)-c1cccc(c1)CNC(=O)[C@@H]1CCCN1C2 [Compound 33] the IC50 (PLK1 T210D (h)) was greater than 10000 nM, the IC50 (HCT-116) was 126 nM and the IC50 (H1299) was 1100 nM. It also gave an IC50 (GSK3β (h)) of 145 nM, an IC50 (CDK4/CyclinD1 (h)) of 1260 nM and an IC50 (U87-MG) of 51.3 nM. It also gave an IC50 (PLK3 (h)) greater than 10000 nM, an IC50 (A2780) of 224 nM and an IC50 (PLK2 (h)) greater than 10000 nM.

For O=C1NCc2cccc(c2)-c2ccnc(n2)Nc2cc(CNC3CCCCC3)cc(c2)CN2CCC[C@@H]12 [Compound 36], the IC50 (PLK1 T210D (h)) was greater than 10000 nM, the IC50 (HCT-116) was 372 nM and the IC50 (H1299) was 3390 nM. It also gave an IC50 (GSK3β (h)) of 129 nM, an IC50 (CDK4/CyclinD1 (h)) of 1200 nM and an IC50 (U87-MG) of 282 nM. It also gave an IC50 (PLK3 (h)) greater than 10000 nM, an IC50 (A2780) of 550 nM and an IC50 (PLK2 (h)) greater than 10000 nM.

In the case of COCCNC(=O)c1ccc2cc1CN1CCC[C@H]1C(=O)NCc1cccc(c1)-c1ccnc(n1)N2 [Compound 40], the IC50 (PLK1 T210D (h)) is reported as greater than 10000 nM, the IC50 (HCT-116) is reported as 2190 nM and the IC50 (H1299) is reported as greater than 10000 nM. It also gave an IC50 (GSK3β (h)) of 162 nM, an IC50 (CDK4/CyclinD1 (h)) of 1620 nM and an IC50 (U87-MG) of 2290 nM. It also gave an IC50 (PLK3 (h)) greater than 10000 nM, an IC50 (A2780) of 4680 nM and an IC50 (PLK2 (h)) greater than 10000 nM.

Compound O=C(NC1CCCCC1)c1ccc2cc1CN1CCC[C@H]1C(=O)NCc1cccc(c1)-c1ccnc(n1)N2 [Compound 41] has an IC50 (PLK1 T210D (h)) greater than 10000 nM, an IC50 (HCT-116) of 3890 nM and an IC50 (H1299) greater than 10000 nM. For the same compound, the IC50 (GSK3β (h)) was 263 nM, the IC50 (CDK4/CyclinD1 (h)) was 5620 nM and the IC50 (U87-MG) was 2290 nM. The IC50 (PLK3 (h)) was greater than 10000 nM, the IC50 (A2780) was greater than 10000 nM and the IC50 (PLK2 (h)) was greater than 10000 nM.

CN(C)CCNC(=O)c1ccc2cc1CN1CCC[C@H]1C(=O)NCc1cccc(c1)-c1ccnc(n1)N2 [Compound 42] was tested, and the IC50 (PLK1 T210D (h)) was greater than 10000 nM, the IC50 (HCT-116) was 955 nM and the IC50 (H1299) was 3390 nM. The IC50 (GSK3β (h)) was 331 nM, the IC50 (CDK4/CyclinD1 (h)) was 457 nM and the IC50 (U87-MG) was 1820 nM. It also gave an IC50 (PLK3 (h)) greater than 3020 nM, an IC50 (A2780) of 1450 nM and an IC50 (PLK2 (h)) greater than 10000 nM.

O=C(NC1CCOCC1)c1ccc2cc1CN1CCC[C@H]1C(=O)NCc1cccc(c1)-c1ccnc(n1)N2 [Compound 46] was tested, and the IC50 (PLK1 T210D (h)) was greater than 10000 nM, the IC50 (HCT-116) was 2240 nM and the IC50 (H1299) was greater than 10000 nM. For the same compound, the IC50 (GSK3β (h)) was 204 nM, the IC50 (CDK4/CyclinD1 (h)) was 5750 nM and the IC50 (U87-MG) was greater than 10000 nM. The IC50 (PLK3 (h)) was greater than 10000 nM, the IC50 (A2780) was 5500 nM and the IC50 (PLK2 (h)) was greater than 10000 nM.
